According to patent US9463193B2, “Individual 5-fluorouracile dose optimization in folfiri treatment” (INSTITUT DE CANCEROLOGIE DE L'OUEST, priority 2008, dated 2016):

Legend:
[1] = human, in vivo
Protocol: A total of 90 patients were studied. All were treated for advanced colorectal cancer following treatment including irinotecan, fluorouracil and leucovorin (FOLFIRI Regimen)
After 200 mg/m^2 of intravenous leucovorin bolus and 400 mg/m^2 of intravenous push of 5-FU for 10 minutes, 5-FU was administered with an initial dose of 2,500 mg/m^2 every two weeks for 46-hours through a battery-operated pump, except in case of DPD significant mutation, in which case the initial dose of 5-FU in 46 hours continuous infusion was decreased by 50%.
Irinotecan was administered before 5-FU for 2 hours and the initial dose was 180 mg/m^2 without reduction for UGT 1A1 7/7 genotype group.
Treatment was continued until documented progression.
Statistical analysis used the chi2 test, linear regression analysis and the Kaplan-Meier method.

[2] = patients treated by 5-FU; cited from earlier work
[3] = cited from earlier work
[4] = subject with normal DPD enzymatic activity

Structure (SMILES): O=c1[nH]cc(F)c(=O)[nH]1 [5-FU, 5-fluorouracile]
- neutropenia grade 4, number observed [1]: 1
- death due to polyvisceral toxicity [2]: 0.8 % of treated patients
- severe grade 3-4 toxicity [2]: 20-25%
- very early polyvisceral toxicity [2]: 5-8 % of patients
- time to plateau of plasmatic levels after beginning of continuous infusion ([3]; 5-FU continuous infusion): about 1 hour
- half-life in blood ([3]; human, in vivo): very short
- 5-FU clearance variation depending on the subject ([3]; interindividual): 6 to 10 factor
- clearance multiplication from bolus administration to continued perfusion ([3]; perfusion during several hours or days): 10 factor
- administered 5-FU available for the anabolic pathway [3, 4]: 20%
- administered 5-FU eliminated by DPD in the catabolic pathway [3, 4]: about 80%
